Reference: patent publication US20180217129A1, “A Method Of Assessing Protein Modification Status And Identifying Biomarkers Linked To Cell Signaling Pathways” (Queen Mary University of London, priority 2015, published 2018)
Like-named read-outs stand apart in the source and are kept apart here.

Legend:
[1] = tested on: off-target kinases (MRC database); details: cited from earlier work
off-targets (ChEMBL) = details: cited from earlier work
parental MCF7 cells = assay: Cell proliferation assay (cell counting), parental cells; type: cell-based, human; details: 1 μM of inhibitor
Experimental: (§1) Parental MCF7, G1:3 and K1:3 cell-lines were seeded in 12-well plates at a density of approximately 80,000 cells·well^−1, in biological triplicate. After the indicated time period, cells were washed with PBS, trypsinized and counted using a Beckman Coulter Vi-CELL XR cell counter. Second-order polynomials where fitted to the data using the ggplot2 package (v0.9.3.1) within R (v3.0.0).

[2] = tested on: MCF7-G and MCF7-K resistant cells; assay: Cell proliferation assay (cell counting), resistant cells; type: cell-based, human; details: resistant cell-lines (MCF7-G for GDC-0941, MCF7-K for KU-0063794), 1 μM of inhibitor
Experimental: MCF7 cells (identity confirmed by genotyping analysis) were routinely maintained in DMEM (supplemented with 10% fetal-bovine serum and 100 U·mL^−1 penicillin/streptomycin) at 37° C. in a humidified atmosphere at 5% CO2. Resistant MCF7 cell-lines, derived from the original parental cells, were obtained by gradually increasing the concentrations of GDC-0941 or KU-0063794 concentrations (starting at 100 nM up to a maximum of 1 μM) over a period of approximately six months. The resultant clones (MCF7-G1:G3 and MCF7-K1:K3) were then routinely maintained as above in the presence of either 1 μM GDC-0941 or KU-0063794 (in DMSO) for MCF7-G and MCF7-K cells, respectively.
as §1

MCF7 cells = assay: Growth factor stimulation phosphoproteomics (CTAM group dynamics, KSEA); type: cell-based, human; details: stimulation for 5 min, relative to 0 minute control
Experimental: Cells were split and seeded at 4×10^5 cells·plate^−1, 72 hours prior to the experiment. The medium in each plate was replaced 24 hours prior to the experiment. Each experiment was performed in biological duplicate. For the network definition experiments, cells were treated with each of the inhibitors or vehicle (DMSO) for 1 hour (Table 1). For the growth factor stimulation experiments, cells were starved for 24h and were subsequently treated with either 50 ng·mL^−1 EGF or IGF for 0, 5, 10, 30, or 60 minutes. For the resistant cell-line experiments, no additional treatments were performed. […]
The abundance of each of the identified markers was monitored systematically using KSEA (kinase-substrate enrichment analysis), as described previously (1). […] The mean of the log2 fold-ratios (versus control) of the phosphorylation sites representing each CTAM group were then calculated alongside the standard deviation (δ) for each mean. The significance of enrichment was then determined using a Z-score based approach and expressed as P-values, using the following formula: Z=(Sm−μt)·m^1/2/δt; where Sm=mean of the CTAM group log2 fold-ratios; μt=mean of the total dataset log2 ratios; m=number of individual phosphopeptides within the CTAM group; and δt=standard deviation of the total dataset log2 ratios (vs control) (19). […]

## CN([C@@H](Cc1ccc(OS(=O)(=O)c2cccc3cnccc23)cc1)C(=O)N1CCN(c2ccccc2)CC1)S(=O)(=O)c1cccc2cnccc12 [KN-62, 1-N,O-bis(5-isoquinolinesulfonyl)-N-methyl-L-tyrosyl-4-phenylpiperazin E]
[1]; 10 μM
  Off-targets from MRC database (>50% inhibition at given concentration): PRAK and CAMK1 and DYRK1A and Lck
off-targets (ChEMBL)
  Off-targets from ChEMBL: P2RX7

## O=c1[nH]c2ccccc2n1C1CCN(Cc2ccc(-c3nc4cc5[nH]cnc5cc4nc3-c3ccccc3)cc2)CC1 [Akt inhibitor VIII]
[1]; 1 μM
  Off-targets from MRC database (>50% inhibition at given concentration): CAMK1 (1 μM)

## Oc1cccc(-c2nc(N3CCOCC3)c3oc4ncccc4c3n2)c1 [PI-103]
off-targets (ChEMBL)
  Off-targets from ChEMBL: mTOR, and DNA-PK, and Akt1

## C=CC(=O)Nc1ccc2ncnc(Nc3cccc(Br)c3)c2c1 [PD-168393]
off-targets (ChEMBL)
  Off-targets from ChEMBL: ERBB2/4, and BMX and BTK and BLK and JAK3

## Cn1c2ccccc2c2c3c(c4c5ccccc5n(CCC#N)c4c21)CNC3=O [Go-6976]
off-targets (ChEMBL)
  Off-targets from ChEMBL: PKD1

## COc1ccc(-c2ccc3c(N4CCOCC4)nc(N4C[C@@H](C)O[C@@H](C)C4)nc3n2)cc1CO [KU-0063794]
Parental MCF7 cells
  proliferation in the presence of inhibitor: unable to do so
[2]
  proliferation in the presence of inhibitor: able to proliferate

## Cc1cncc2cccc(S(=O)(=O)N3CCCNC[C@@H]3C)c12 [H-1152]
off-targets (ChEMBL)
  Off-targets from ChEMBL: PKA

## CS(=O)(=O)N1CCN(Cc2cc3nc(-c4cccc5[nH]ncc45)nc(N4CCOCC4)c3s2)CC1 [GDC-0941]
Parental MCF7 cells
  proliferation in the presence of inhibitor: unable to do so
[2]
  proliferation in the presence of inhibitor: able to proliferate
[1]; 1 μM
  Off-targets from MRC database (>50% inhibition at given concentration): CLK2 (1 μM)

## COc1ccc(S(=O)(=O)N(CCO)c2ccccc2CN(C)C/C=C/c2ccc(Cl)cc2)cc1 [KN-93]
[1]; 10 μM
  Off-targets from MRC database (>50% inhibition at given concentration): TrkA and smMLCK

## Nc1[nH]nc2nnc(-c3c(-c4ccccc4)nn4ccccc34)cc12 [ERK inhibitor II]
off-targets (ChEMBL)
  Off-targets from ChEMBL: MAPK14

## CN(C)CCCn1cc(C2=C(c3c[nH]c4ccccc34)C(=O)NC2=O)c2ccccc21 [Bisindolylmaleimide-I]
off-targets (ChEMBL)
  Off-targets from ChEMBL: CDK4/CCND1, and GSK3β, and PIM1

## C[C@@H](N)[C@H]1CC[C@H](C(=O)Nc2ccncc2)CC1 [Y-27632]
[1]; 1 μM
  Off-targets from MRC database (>50% inhibition at given concentration): PHK and MST2 and RSK2 and MSK1 and MNK1 and RSK1 and AMPK and PRK2
off-targets (ChEMBL)
  Off-targets from ChEMBL: PKCε

## N#CC(=C(/N)Sc1ccccc1N)/C(C#N)=C(\N)Sc1ccccc1N [U0126]
[1]; 10 μM
  Off-targets from MRC database (>50% inhibition at given concentration): MKK1 (10 μM)

## IGF-1: Human recombinant IGF-1 (100-11) purchased from Peprotech
MCF7 cells
  EGFR-MEK CTAM group phosphorylation: significant, acute up-regulation

## CCc1cncnc1N1CCN(Cc2nc3ccc(C(F)(F)F)cc3[nH]2)CC1 [PF-4708671]
[1]; 1 μM
  Off-targets from MRC database (>50% inhibition at given concentration): MSK1 and RSK1
